Like-named read-outs stand apart in the source and are kept apart here.

Here are results for six compounds from US10759831B2, “Peptide compound, production method therefor, and use thereof” (iNtRON Biotechnology, Inc., priority 2014, dated 2020).

The subject of one data set is RKO cells. The data set can be described thus: Combination of Asperphenin B with other anticancer drugs, SRB cell viability. In kind it is cell-based, human. The settings on record: 48 hours; for Effect of administration in combination: <1 synergistic, =1 additive, >1 antagonistic; for Effects of cell growth inhibition in combination with Asperphenin B compared to the anticancer drug alone: FIGS. 7A to 7C. Here is the method: RKO cells diluted in a medium containing 10% (v/v) FBS were inoculated in each well of a 96-well microplate so that each plate included 7×10^3 cells, and then, the cells were cultured for about 24 hours at a temperature of 37° C. under the condition of 5% CO2. In the medium containing 10% (v/v) FBS, irinotecan (Sigma Aldrich), 5-fluorouracil (Sigma Aldrich), or gemsitabin (Sigma Aldrich) was mixed with […] at a ratio of 1:1, and then, the mixture was added to the cultured cells. Then, the cells were cultured for 48 hours at a temperature of 37° C. under the conditions of 5% CO2. […] In addition, the effects of the administration in combination were measured according to Equation 1, and results thereof are shown in Table 8. Effects of administration in combination=D1/(Dx)1+D2/(Dx)2 [Equation 1] D1: Concentration of […] with expected effect in administration in combination D2: Concentration of other anticancer drugs with expected effect in administration in combination (Dx)1: Concentration of […] with expected effect in administration of […] only (Dx)2: Concentration of other anticancer drugs with expected effect in administration of other anticancer drugs only […]

For data set [1], the system named is stomach cancer cell line SNU638. The data set can be described thus: SRB cell viability assay, stomach cancer cell line SNU638. In kind it is cell-based. The conditions noted are these: SNU638, 72 hours, read-out: Cell growth inhibition concentration (IC50). Here is the method:
(§1) Regarding a lung cancer cell line A549 (Korean Cell line Bank), a colon cancer cell line HCT116 (ATCC), a stomach cancer cell line SNU638 (Korean Cell Line Bank), a liver cancer cell line SK-HEP-1 (Korean Cell line Bank), and a breast cancer cell line MDA-MB-231 (Korean Cell line Bank), a sulforhodamine B (SRB) assay which is a method of measuring cell viability was used for measuring apoptosis effects of Asperphenin.
(§2) In detail, 190 μl of a cell suspension at a concentration of 3.5×10^4 cells/ml was inoculated in each well of a 96-well microplate. 0.8 μM, 4 μM, 20 μM, or 100 μM of Asperphenin was added to the cell culture medium, and cultured at a temperature of 37° C. for 72 hours under the condition of 5% CO2. After incubation, 50 μl of 50% (v/v) trichloroacetic acid solution (Sigma Aldrich) was added to each well, and then, incubated at a temperature of 4° C. for 30 minutes, to thereby fix the cells thereto. The fixed cells were washed with water five times, and then, dried in the air.
(§3) Next, 80 μl of a 0.4% (w/v) SRB aqueous solution (Sigma Aldrich) containing 1% (v/v) acetic acid (DUKSAN) was added to each well, incubated at room temperature for 1 hour to stain cells therein, and the stained cells washed with water and dried. The cells were dissolved by adding 200 μl of 10 mM Tris (pH 10.0) (Sigma Aldrich) to each well, and then, the number of living cells was calculated by measuring the absorbance thereof at 515 nm. The concentration of the compound inhibiting cell growth to 50% based on the number of the living cells, i.e., 50% inhibition concentration (IC50) was calculated, and the results are shown in Table 3. Here, as a positive control, etoposide (Sigma Aldrich) was used.

The nature of data set [2]: Physicochemical characterization.
Data set [3] concerns colon cancer cell line HCT116. As to the kind of experiment: SRB cell viability assay, colon cancer cell line HCT116. In kind it is cell-based. As to the method:
as §1, §2, §3
From the colon cancer cell lines HCT116 (ATCC), HCT15 (Korean Cell Line Bank), LS174T (Korean Cell Line Bank), RKO(ATCC), and SW480(ATCC), cell growth inhibition concentrations (IC50, μM) were calculated as described in Example 2-1, and the results are shown in Table 4. Here, as a positive control, paclitaxel (Sigma Aldrich) was used.

The test system of data set [4] is breast cancer cell line MDA-MB-231. The data set can be described thus: SRB cell viability assay, breast cancer cell line MDA-MB-231. In kind it is cell-based. The settings on record: MDA-MB-231, 72 hours, read-out: Cell growth inhibition concentration (IC50). As to the method: as §1, §2, §3
For data set [5], the system named is liver cancer cell line SK-HEP-1. The data set can be described thus: SRB cell viability assay, liver cancer cell line SK-HEP-1. In kind it is cell-based. The conditions noted are these: SK-HEP-1, 72 hours, read-out: Cell growth inhibition concentration (IC50). Here is the method:
as §1, §2, §3

Data set [6] concerns lung cancer cell line A549. As to the kind of experiment: SRB cell viability assay, lung cancer cell line A549. In kind it is cell-based. The settings on record: A549, 72 hours, read-out: Cell growth inhibition concentration (IC50). Here is the method:
as §1, §2, §3

In data set [7] the test system is colon cancer cell line LS174T. The data set can be described thus: SRB cell viability assay, colon cancer cell line LS174T. In kind it is cell-based. The settings on record: Homo sapiens, read-out: Growth inhibition value of cancer cell (IC50). Here is the method:
as §2
(§4) Next, 80 μl of a 0.4% (w/v) SRB aqueous solution (Sigma Aldrich) containing 1% (v/v) acetic acid (DUKSAN) was added to each well, incubated at room temperature for 1 hour to stain cells therein, and the stained cells washed with water and dried. The cells were dissolved by adding 200 μl of 10 mM Tris (pH 10.0) (Sigma Aldrich) to each well, and then, the number of living cells was calculated by measuring the absorbance thereof at 515 nm. […]
(§5) From the colon cancer cell lines HCT116 (ATCC), HCT15 (Korean Cell Line Bank), LS174T (Korean Cell Line Bank), RKO(ATCC), and SW480(ATCC), cell growth inhibition concentrations (IC50, μM) were calculated as described in Example 2-1, and the results are shown in Table 4. […]

Data set [8] relates to colon cancer cell line SW480. As to the kind of experiment: SRB cell viability assay, colon cancer cell line SW480. In kind it is cell-based. The conditions noted are these: Homo sapiens, read-out: Growth inhibition value of cancer cell (IC50). Here is the method:
as §2, §4, §5

The subject of data set [9] is colon cancer cell line HCT15. As to the kind of experiment: SRB cell viability assay, colon cancer cell line HCT15. In kind it is cell-based. The conditions noted are these: Homo sapiens, HCT-15, read-out: Growth inhibition value of cancer cell (IC50). Here is the method: as §2, §4, §5
Data set [10] deals with colon cancer cell line RKO. As to the kind of experiment: SRB cell viability assay, colon cancer cell line RKO. In kind it is cell-based. The settings on record: Homo sapiens, read-out: Growth inhibition value of cancer cell (IC50). Here is the method:
as §2, §4, §5

For `O=c1[nH]cc(F)c(=O)[nH]1` [5-fluorouracil], the “Effect of administration in combination” value in the data set with RKO cells (5-fluorouracil 0.08 μM + Asperphenin B 8 μM) was 0.863; in the data set on RKO cells (5-fluorouracil 0.4 μM + Asperphenin B 8 μM) it was 0.852; with RKO cells (5-fluorouracil 2 μM + Asperphenin B 8 μM) it was 0.786; in the data set with RKO cells (5-fluorouracil 10 μM + Asperphenin B 8 μM), 0.765. In the data set on RKO cells, the “Effects of cell growth inhibition in combination with Asperphenin B compared to the anticancer drug alone” value is “increased”.
For `Nc1ccn([C@@H]2O[C@H](CO)[C@@H](O)C2(F)F)c(=O)n1` [Gemsitabin, gemsitabin], in the data set on RKO cells, the “Effects of cell growth inhibition in combination with Asperphenin B compared to the anticancer drug alone” value was “increased”. Further, the “Effect of administration in combination” value with RKO cells (gemsitabin 0.32 μM + Asperphenin B 8 μM) was 0.907; in the data set on RKO cells (gemsitabin 1.6 μM + Asperphenin B 8 μM), 0.882; in the data set on RKO cells (gemsitabin 8 μM + Asperphenin B 8 μM), 0.801; in the data set on RKO cells (gemsitabin 40 μM + Asperphenin B 8 μM), 0.714.
As for `CCCCCCCCC[C@@H](O)CC(=O)N[C@@H](CC(N)=O)C(=O)N[C@@H](CCC(N)=O)C(=O)N[C@@H](CC(=O)c1cc(C)cc(O)c1C(=O)c1c(O)cccc1O)CC(C)C` [Asperphenin A], the IC50 in data set [1] was found to be 5.8 µM; in data set [3] (HCT116, 72 hours, Table 3, read-out: Cell growth inhibition concentration (IC50)), 1.7 µM; in [4], 3.1 µM; in data set [5], 2.3 µM; in data set [6], 14.6 µM. Further, the “Solubility in organic solvent” value in data set [2] (methanol and acetone) was “well dissolved in a moderate organic solvent, such as methanol and acetone”. The Stability entry in data set [2] (room temperature) is “stable at room temperature”.
For `CCc1c2c(nc3ccc(OC(=O)N4CCC(N5CCCCC5)CC4)cc13)-c1cc3c(c(=O)n1C2)COC(=O)[C@]3(O)CC` [Irinotecan, irinotecan], the “Effects of cell growth inhibition in combination with Asperphenin B compared to the anticancer drug alone” value in the data set with RKO cells is “increased”. Besides, the “Effect of administration in combination” value is reported as 0.792 with RKO cells (irinotecan 1.25 μM + Asperphenin B 2.5 μM), 0.751 in the data set with RKO cells (irinotecan 2.5 μM + Asperphenin B 2.5 μM), 0.691 in the data set on RKO cells (irinotecan 5 μM + Asperphenin B 2.5 μM) and 0.650 with RKO cells (irinotecan 10 μM + Asperphenin B 2.5 μM).
`CC(=O)O[C@H]1C(=O)[C@@]2(C)[C@H]([C@H](OC(=O)c3ccccc3)[C@]3(O)C[C@H](OC(=O)[C@H](O)[C@@H](NC(=O)c4ccccc4)c4ccccc4)C(C)=C1C3(C)C)[C@]1(OC(C)=O)CO[C@@H]1C[C@@H]2O` [Paclitaxel, paclitaxel, reference compound]: the IC50 was 0.00046 µM in [7]; more than 0.1 µM in data set [8]; 0.00042 µM in data set [3] (Homo sapiens, HCT-116, HCT116, Table 4, read-out: Growth inhibition value of cancer cell (IC50)); more than 0.1 µM in data set [9]; 0.00021 µM in data set [10].
`COc1cc([C@@H]2c3cc4c(cc3[C@@H](O[C@@H]3O[C@@H]5CO[C@@H](C)O[C@H]5[C@H](O)[C@H]3O)[C@H]3COC(=O)[C@H]23)OCO4)cc(OC)c1O` [Etoposide, etoposide, reference compound]: the IC50 is 0.8 µM in data set [1] (Homo sapiens, SNU-638); 1.9 µM in data set [3] (Homo sapiens, HCT-116, HCT116, 72 hours, Table 3, read-out: Cell growth inhibition concentration (IC50)); 10.6 µM in [4] (Homo sapiens); 0.6 µM in data set [5] (Homo sapiens, SK-HEP1); 0.7 µM in data set [6] (Homo sapiens).
